Reference: patent US20030229132A1, “Small molecule modulators of apoptosis” (priority 2002, published 2003)

Assays:
MDA-MB-453 = assay: Cell viability, MDA-MB-453; assay type: cell-based; details: MDA-MB-453, breast
Excerpt: (§1) Normal cell lines include peripheral blood lymphocytes (PBL) isolated from donated human blood, non-transformed mammary fibroblasts (MCF-10A), human mammary epithelial cells (HMEC), human umbilical vein endothelial cells (HUVEC), and human prostate epithelial cells (PREC). Transformed cell lines include cell lines from leukemia, breast, lung, ovarian, and epidermal cancers (Table 1).

A431 = assay: Cell viability, A431; assay type: cell-based; details: A431, epidermal
Excerpt: as §1

MCF 10A cells = assay: Cell viability, MCF 10A; assay type: cell-based, human
Excerpt: as §1

Jurkat cells = assay: Cell viability by MTT test, Jurkat; assay type: cell-based, human
Experimental: Samples were then probed by immunoblot for (A) caspase-3 activation or (B) cleavage of PARP. (C) DNA fragmentation analysis. […] The DNA was isolated by phenol/chloroform extraction, separated on a 2% agarose gel and visualized by ethidium bromide staining. Cell viability assay.
One of the hallmarks of apoptosis is the fragmentation of chromosomal DNA into discrete, nucleosomal sized bands. […] We then examined the effects of the compounds on cell viability. Jurkat cells were incubated at different concentrations of compounds for 22 hr and then assayed by MTT test.
as §1

MCF-7 = assay: Cell viability, MCF-7; assay type: cell-based
Excerpt: as §1

- IC50 (MDA-MB-453): > 50 µM
- IC50 (A431): 40 µM
- IC50 (Jurkat cells; Jurkhat, leukemia, p53 +): 4 µM
- IC50 (MCF-7; MCF-7, breast, caspase-3 deficient): > 50 µM
Structure (SMILES): O=C1C(=O)N(Cc2ccc(Cl)c(Cl)c2)c2ccccc21 [Compound 2]
- effect on cells (MCF 10A cells; MCF 10A cells, up to 50 μM): no effect except at the highest concentration
- IC50 (MCF 10A cells; MCF 10A, normal cell): > 50 µM
- EC50 (Jurkat cells; Jurkat, 22 hr, MTT test, read-out: EC50 cell killing): ~5 µM
- effect on cells (MCF-7; MCF-7, deficient in caspase-3 activity): no effect
